Patent US4591582A, “Organophosphorus compounds useful as anticonvulsant agents” (priority 1984, dated 1986)
Where two headings read alike, the source gives them in different places.

Columns and labels:
[1] = tested on: seizures induced by subcutaneous bicuculline (scBic); details: data taken from Kupferberg, 1980, cited from earlier work; for ED50, scBic: bicuculline 2.7 mg/kg s.c.
[2] = tested on: convulsions induced in mice by MES and scMet; details: reported, Kupferberg, 1980; cited from earlier work
[3] = tested on: seizures induced by subcutaneous pentylenetetrazol (Metrazol) (scMet); details: data taken from Kupferberg, 1980, cited from earlier work; for ED50, scMet: pentylenetetrazol 85 mg/kg s.c.
[4] = tested on: seizures induced by subcutaneous picrotoxin (scPic); details: data taken from Kupferberg, 1980, cited from earlier work; for ED50, scPic: picrotoxin 3.2 mg/kg s.c.
[5] = tested on: neurotoxicity (Rotorod); details: data taken from Kupferberg, 1980; cited from earlier work
[6] = Rotorod neurotoxicity test (failure to remain on rotating rod, 6 rpm, for 1 min); assay type: in vivo, male Carworth Farms No. 1 mice; details: mouse, in vivo, ip; mice, i.p., 30 mins. after dosing
Experimental: (§1) All tests were performed on male Carworth Farms No. 1 mice by the Antiepileptic Drug Development Program administered by the Section of Epilepsy, National Institutes of Health, Bethesda, MD 20014, according to previously described procedures [DHEW Publication No. (NIH) 76-1093 (1976), Bethesda, MD]. These involved the inhibition of seizures induced by maximal electroshock (MES) and by three subcutaneously administered chemicals: 85 mg/kg pentylenetetrazol (Metrazol) (scMet), 2.7 mg/kg bicuculline (scBic) and 3.2 mg/kg picrotoxin (scPic). Test compounds were solubilized in polyethylene glycol 400 and administered intraperitoneally in a volume of 0.01 ml/g. The time of peak anticonvulsant activity were determined for II (200 mg/kg), III (300 mg/kg) and IV (300 mg/kg) against MES and for I (200 mg/kg) against scMet with dosing of I-III at 0.5, […]. using four mice per dose. Neurotoxicity was evaluated by placing an animal on a 1 in. diameter knurled plastic rod and rotating at 6 rpm. Failure of the animal to remain on the rod for 1 min. signified neurological toxicity. This testing was performed using groups of eight mice on a time course basis by dosing with I (900 mg/kg), II (400 mg/kg) and III (360 mg/kg) after 0.5, 1, 2 and 4 hrs. and with IV (580 mg/kg) after an additional 6 and 24 hrs. The neurotoxicity was also similarly quantified, with observations taken 30 mins. after dosing, as follows (compound/mg/kg): I, 400, 500, 600, 700, 800, 900; II, 350, 400, 430, 470; III, 230, 260, 300, 360, 420; IV, 150, 300, 400, 500, 580, 600. Quantification of anticonvulsant activity was similarly determined as follows (compound, test, mg/kg), I, MES, 100, 140, 150, 160, 170, 190, 250; I, scMet, 140, 200, 240, 300, 400, 500; I, scBic, 350, 400, 450, 475, 500; I, scPic, 150, 250, 330, 440, 500; II, MES, 130, 170, 200, 230; II, scMet, 150, 180, 230, 300; III, MES, 220, 240, 280, 290, 300; III, scMet, 300, 400, 500, 600; IV, MES, 150, 220, 300, 400, 500, 600; IV, scMet, 300, 410, 470, 600, 760. […] I=dimethyl ester of 3-aminophenylphosphonic acid; II=diethyl ester of 3-aminophenylphosphonic acid; III=diisopropyl ester of 3-aminophenylphosphonic acid; and IV=diethyl-2-acetamidophenylphosphate.

[7] = tested on: seizures induced by maximal electroshock (MES); assay: inhibition of seizures induced by maximal electroshock (MES) in mice, intraperitoneal; assay type: in vivo, male Carworth Farms No. 1 mice; details: for ED50, MES / P.I. (protective index, TD50/ED50), MES: i.p.; for factor of greater protection against MES than VPA: relative to VPA (valproic acid)
Experimental: as §1

[8] = tested on: seizures induced by subcutaneous pentylenetetrazol (Metrazol) (scMet); assay: inhibition of seizures induced by subcutaneous pentylenetetrazol (Metrazol) (scMet), 85 mg/kg; assay type: in vivo, male Carworth Farms No. 1 mice; details: for P.I. (protective index, TD50/ED50), scMet / ED50, scMet: i.p.
Experimental: as §1

[9] = tested on: seizures induced by subcutaneous picrotoxin (scPic); assay type: in vivo, male Carworth Farms No. 1 mice
Experimental: as §1, with “600.” for “600. Quantification of anticonvulsant activity was similarly determined as follows (compound, test, mg/kg), I, MES, 100, 140, 150, 160, 170, 190, 250; I, scMet, 140, 200, 240, 300, 400, 500; I, scBic, 350, 400, 450, 475, 500; I, scPic, 150, 250, 330, 440, 500; II, MES, 130, 170, 200, 230; II, scMet, 150, 180, 230, 300; III, MES, 220, 240, 280, 290, 300; III, scMet, 300, 400, 500, 600; IV, MES, 150, 220, 300, 400, 500, 600; IV, scMet, 300, 410, 470, 600, 760.”

[10] = tested on: seizures induced by subcutaneous bicuculline (scBic); assay: inhibition of seizures induced by subcutaneous bicuculline (scBic), 2.7 mg/kg; assay type: in vivo, male Carworth Farms No. 1 mice
Experimental: as §1, with “600.” for “600. Quantification of anticonvulsant activity was similarly determined as follows (compound, test, mg/kg), I, MES, 100, 140, 150, 160, 170, 190, 250; I, scMet, 140, 200, 240, 300, 400, 500; I, scBic, 350, 400, 450, 475, 500; I, scPic, 150, 250, 330, 440, 500; II, MES, 130, 170, 200, 230; II, scMet, 150, 180, 230, 300; III, MES, 220, 240, 280, 290, 300; III, scMet, 300, 400, 500, 600; IV, MES, 150, 220, 300, 400, 500, 600; IV, scMet, 300, 410, 470, 600, 760.”

[11] = tested on: neurotoxicity (Rotorod); assay: Rotorod neurotoxicity test (failure to remain on rotating rod, 6 rpm, for 1 min); assay type: in vivo, male Carworth Farms No. 1 mice
Experimental: as §1

[12] = tested on: convulsions induced in mice by MES and scMet; assay: time course of protection against convulsions induced by MES and scMet (FIG. 1); assay type: in vivo; details: i.p., 300 mg/kg
Experimental: FIG. 1 is a graphical representation showing the time course of percent protection by intraperitoneally administered I-IV against seizures induced by maximal electroshock (MES) or subcutaneous pentylenetetrazol (Metrazol) (scMet). Key: ( ) I (dimethyl ester of 3-aminophenylphosphonic acid) 400 mg/kg, scMet: ( ) II (diethyl ester of 3-aminophenylphosphonic acid) 200 mg/kg, MES; ( ) III (diisopropyl ester of 3-aminophenylphosphonic acid) 300 mg/kg, MES: ( ) IV (diethyl-2-acetamidophenylphosphate) 300 mg/kg, MES.
All tests were performed on male Carworth Farms No. 1 mice by the Antiepileptic Drug Development Program administered by the Section of Epilepsy, National Institutes of Health, Bethesda, MD 20014, according to previously described procedures [DHEW Publication No. (NIH) 76-1093 (1976), Bethesda, MD]. […] The time of peak anticonvulsant activity were determined for II (200 mg/kg), III (300 mg/kg) and IV (300 mg/kg) against MES and for I (200 mg/kg) against scMet with dosing of I-III at 0.5, […]. using four mice per dose. Neurotoxicity was evaluated by placing an animal on a 1 in. diameter knurled plastic rod and rotating at 6 rpm. […]

[13] = tested on: seizures induced by maximal electroshock (MES); details: data taken from Kupferberg, 1980; cited from earlier work
[14] = mice, pentylenetetrazol 85 mg/kg s.c.

| Compound | ED50, scBic [1] [mg/kg] | time to peak effect [2] [min] | ED50, scMet [3] [mg/kg] | ED50, scPic [4] [mg/kg] | TD50 at 0.5 h [6] [mg/kg] | ED50, MES ([7]; mice) [mg/kg] | P.I. (protective index, TD50/ED50), MES ([7]; mice) | P.I. (protective index, TD50/ED50), scMet ([8]; mice) | also measured |
| --- | --- | --- | --- | --- | --- | --- | --- | --- | --- |
| CCC1(c2ccccc2)C(=O)NC(=O)NC1=O [Phenobarbital] | 37.72 | 60 | 13.17 | 27.51 |  |  |  |  |  |
| CCC1(C)CC(=O)NC1=O (stereo not drawn) [Ethosuximide] | 459.01 | 30 |  | 242.69 |  |  |  |  |  |
| CN1C(=O)OC(C)(C)C1=O [Trimethadione] | 532.12 | 60 | 300.45 | 408.09 |  |  |  |  | P.I. (protective index, TD50/ED50), scBic [1]: 1.54; TD50, Rotorod neurotoxicity test [5]: 819.07 mg/kg; P.I. (protective index, TD50/ED50), scMet [3]: 2.73; P.I. (protective index, TD50/ED50), scPic [4]: 2.01 |
| CC(C)OP(=O)(OC(C)C)c1cccc(N)c1 [III, diisopropyl ester of 3-aminophenylphosphonic acid] |  |  |  |  | 311 | 266.49 | 1.17 |  |  |
| COP(=O)(OC)c1cccc(N)c1 [I, dimethyl ester of 3-aminophenylphosphonic acid] |  |  |  |  | 680 | 166.46 | 4.08 | 2.83 | ED50, scMet [8, 14]: 239.93 mg/kg; result in scMet test compared with VPA ([8]; relative to VPA): nearly identical results as VPA; activity profile in all three testing procedures compared with trimethadione ([8]; scMet, scBic, scPic): very similar to trimethadione; times better than valproic acid against chemically induced seizures ([9]; first of two chemically induced seizures (scPic)): 1.8 times; P.I. (protective index, TD50/ED50), scPic ([9]; mice, i.p., TD50/ED50): 2.02; ED50, scPic ([9]; mouse, in vivo, ip): 336.20 mg/kg; effectiveness against scPic relative to VPA ([9]; relative to VPA): 1.8 times; P.I. (protective index, TD50/ED50), scBic ([10]; mice, i.p., TD50/ED50): 1.56; ED50, scBic ([10]; mice, i.p., bicuculline 2.7 mg/kg s.c.): 435.94 mg/kg; effectiveness against scBic relative to VPA ([10]; relative to VPA): 1.3 times; times better than valproic acid against chemically induced seizures ([10]; second of two chemically induced seizures (scBic)): 1.3 times; neurotoxicity dose level ([11]; compared with valproic acid): superior neurotoxicity dose level; factor of greater protection against MES than VPA [7]: 2.6 times; factor of greater protection against MES than VPA ([7]; listed as dimethyl ester of 3-aminophenylphosphonic acid): about 2.5 times |
| CCOP(=O)(OCC)c1cccc(N)c1 [II, diethyl ester of 3-aminophenylphosphonic acid] |  |  |  |  | 389 | 175.43 | 2.22 | 1.86 | ED50, scMet [8, 14]: 208.73 mg/kg; factor of greater protection against MES than VPA [7]: 1.4 times |
| CCOP(=O)(OCC)Oc1ccccc1NC(C)=O [IV, diethyl-2-acetamidophenylphosphate] |  |  |  |  | 458 |  | 1.31 | 1.03 | ED50 ([8]; Mus musculus, ip, mice, pentylenetetrazol 85 mg/kg s.c.): 444 mg/kg; latent protective effect in time course [12]: slight degree of latent protective effect; time course of neurotoxicity ([11]; mice, i.p., IV 580 mg/kg, up to 24 hours): high and prolonged toxicity beginning after two hours and persisting at this level from 6 to 24 hours; ED50 ([7]; Mus musculus, ip, mice): 348 mg/kg |
| CCCC(CCC)C(=O)O [VPA, Valproic Acid] | 359.95 | 16 | 148.59 | 387.21 |  |  |  |  | ED50, MES [13]: 217.66 mg/kg |
